Results on three molecules are retold here after paper PMC2846816 (Arthritis and rheumatism, 2009).

Holding throughout (assay): Fura-2 Ca2+ influx
Common to all, as to assay type: cell-based

The target in assay [1] is T1, TRPV4 (Sus scrofa, UniProt B3VP30).
The target in assay [2] is T1, TRPV4. This is another data set of the same source.
For assay [3], the target named is T1, TRPV4. The source holds these as a separate data set.

Counter-ions that a name gives are not always drawn. Like-named read-outs stand apart in the source and are kept apart here.

T1 sequence (B3VP30 1-871): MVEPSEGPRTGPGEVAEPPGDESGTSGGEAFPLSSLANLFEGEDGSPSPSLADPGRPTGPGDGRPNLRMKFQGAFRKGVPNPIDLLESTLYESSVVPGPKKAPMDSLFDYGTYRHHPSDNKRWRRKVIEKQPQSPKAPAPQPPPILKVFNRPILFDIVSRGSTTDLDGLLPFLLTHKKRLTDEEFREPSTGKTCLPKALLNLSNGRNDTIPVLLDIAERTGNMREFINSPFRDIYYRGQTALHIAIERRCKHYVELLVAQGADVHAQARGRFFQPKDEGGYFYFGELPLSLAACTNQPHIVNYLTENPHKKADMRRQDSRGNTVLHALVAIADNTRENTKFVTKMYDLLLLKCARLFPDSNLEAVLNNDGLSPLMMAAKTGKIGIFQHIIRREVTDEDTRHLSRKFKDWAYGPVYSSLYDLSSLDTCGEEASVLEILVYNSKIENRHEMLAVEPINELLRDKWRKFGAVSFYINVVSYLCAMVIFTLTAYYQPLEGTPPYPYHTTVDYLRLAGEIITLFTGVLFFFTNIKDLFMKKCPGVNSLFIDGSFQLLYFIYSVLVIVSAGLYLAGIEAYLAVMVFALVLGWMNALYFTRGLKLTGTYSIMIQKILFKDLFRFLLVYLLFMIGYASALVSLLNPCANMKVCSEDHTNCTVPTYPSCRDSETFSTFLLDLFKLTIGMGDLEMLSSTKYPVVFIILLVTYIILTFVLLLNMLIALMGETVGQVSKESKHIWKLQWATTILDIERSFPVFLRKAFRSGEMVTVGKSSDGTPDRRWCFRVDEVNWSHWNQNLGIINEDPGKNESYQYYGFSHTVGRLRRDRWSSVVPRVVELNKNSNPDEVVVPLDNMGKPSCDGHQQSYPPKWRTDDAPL

Molecule `CCCCCCCCCC(=O)O[C@@H]1[C@@H](C)[C@@]2(O)[C@@H](C=C(CO)C[C@@]3(O)C(=O)C(C)=C[C@@H]23)[C@@H]2C(C)(C)[C@]12OC(=O)CCCCCCCCC` [4αPDD] yielded a half-maximal effective concentration (EC50) in assay [1] of around 2 µM.
`CN(CCc1ccc(Nc2ncc(-c3cccnc3)s2)cc1)Cc1ccccc1` [GSK205, N-(4-{2 [methyl(phenylmethyl)amino]ethyl}phenyl)-5-(3-pyridinyl)-1,3-thiazol-2-amine hydrobromide]: the IC50 in assay [2] is around 0.6 µM.
On to `Cl.Cl.Cl.Cl.Cl.Cl.N.N.N.N.N.N.N.N.N.N.N.N.N.N.[O-2].[O-2].[Ru+3].[Ru+3].[Ru+4]` [Ruthenium Red], for which the IC50 in assay [3] is around 0.005 µM.

As a reminder, the EC50 is the concentration that produces a half-maximal response. Low values mean higher potency in that assay, high ones lower potency in that assay. One may read the IC50 as the midpoint of a concentration-inhibition curve. Low values mean inhibition by little substance, high ones a need for much substance.
